Literature values as cited in US20120316171A1, “Tryptophan Hydroxylase Inhibitors for the Treatment of Cancer” (priority 2009, published 2012).

What was measured:
[1] = in vivo
[2] = system: cholangiocarcinoma tumors; conditions: xenograft model of cholangiocarcinoma tumors; Alpini et al. 2008

- blood-brain barrier passage [1]: crosses the blood-brain barrier
SMILES: N[C@@H](Cc1ccc(Cl)cc1)C(=O)O (racemic) [pCPA, para-chlorophenylalanine]
- adverse effects of administration (carcinoid patients): unwanted psychological effects
- effect on symptoms of carcinoid syndrome (flushing, diarrhea, valvular damage) (carcinoid patients; reported in the 1960's): alleviated some of those symptoms
- tumor growth [2]: suppressed tumor growth
